The species named for data set [1] is Rattus norvegicus. The data set can be described thus: Induction of ethanol-derived blood acetaldehyde level in 0.1% phenobarbital for 8 days pretreated Sprague-Dawley rat measured after 2 hrs of acute ethanol dose. Format: functional, organism-based.
For data set [2], the species on record is Rattus norvegicus. The data set can be described thus: Inhibition of Sprague-Dawley rat liver mitochondrial aldehyde dehydrogenase at 1 mM measured immediately after compound addition at 38 degC in presence of 0.25 M sucrose relative to control.
Data set [3] is filed under the species Rattus norvegicus. The data set can be described thus: Inhibition of Sprague-Dawley rat liver mitochondrial aldehyde dehydrogenase at 1 mM at 38 degC in presence of 0.25 M sucrose relative to control. To be noted: TDE = time-dependent effect.
Data set [4] is filed under the species Rattus norvegicus. Put plainly: Irreversible inhibition of Sprague-Dawley rat liver mitochondrial aldehyde dehydrogenase at 1 mM incubated for 10 mins at 38 degC in presence of 0.25 M sucrose followed by compound washout measured relative to control.
Data set [5] is filed under the species Rattus norvegicus. Put plainly: Inhibition of Sprague-Dawley rat liver mitochondrial aldehyde dehydrogenase at 1 mM after 5 mins at 0 degC in presence of 0.25 M sucrose relative to control.
The test system of a further data set is Liver microsome. The data set can be described thus: Drug level in Sprague-Dawley rat liver microsomes treated with phenobarbital by GC-MS analysis in presence of NADPH. Format: ADME. A general note: Liver microsomes are vesicles of endoplasmic reticulum, rich in cytochrome P450 enzymes.
Data set [6] is filed under the species Rattus norvegicus. The data set can be described thus: Inhibition of Sprague-Dawley rat liver mitochondrial aldehyde dehydrogenase at 1 mM after 5 mins at 25 degC in presence of 0.25 M sucrose relative to control.
For data set [7], the species on record is Rattus norvegicus. Put plainly: Inhibition of Sprague-Dawley rat liver mitochondrial aldehyde dehydrogenase assessed as complete inhibition at 1 mM measured after 5 to 10 mins at 38 degC in presence of 0.25 M sucrose.

Each structure is given as a SMILES string. Calls of active or inactive are those of the source. No cut-off for these calls is given here.

As to `C#CCN(C)Cc1ccccc1`, the outcome in the data set listed under Rattus norvegicus [1] was Active.
A word on the inhibition: it is the percentage by which the read-out fell short of the control. As for `C#CC=O` [PROPYNAL], the inhibition is 43% in the data set filed under Rattus norvegicus [2], “tde” in the data set listed under Rattus norvegicus [3], 32% in the data set listed under Rattus norvegicus [5] and 45% in the data set filed under Rattus norvegicus [6]. Also, the inhibition result in the data set listed under Rattus norvegicus [4] and in the data set filed under Rattus norvegicus [7] was “Active” in each case. The Drug metabolism entry in the data set on Liver microsome is reported as “metabolite_detected”.

(Values after ChEMBL document CHEMBL3228041, “Propiolaldehyde, a pargyline metabolite that irreversibly inhibits aldehyde dehydrogenase. Isolation from a hepatic microsomal system” (J Med Chem, 1979).)
